Test results taken from patent US8815800B2, “Moisturizing composition comprising an aminopeptide mixture” (Conopco, Inc., priority 2011, dated 2014).

Tests used:
[1] = system: stratum corneum; assay: Hydration of stratum corneum: water uptake in sorption-desorption cycle (Dynamic Water Sorption Analyzer); conditions: 0.12 mL applied
Description: The hydration of the stratum corneum was estimated from hysteresis observed during the sorption-desorption cycle. Disks of stratum corneum (6 mm in diameter) were treated with 0.06 mL aminopeptide mixture, glycerol or water at both sides and dried. The samples were then placed in a Dynamic Water Sorption Analyzer and with controlled humidity. When the humidity was increased in small steps (Delta RH=10%) water uptake was measured after 3 hours equilibration for each step. Water uptake is defined as a mass of water per the dry mass of stratum corneum. Table 3 depicts the values of water uptake for sorption and desorption for stratum corneum treated with aminopeptide mixture consistent with this invention (Sample 3), glycerol and stratum corneum treated with deionized water.

[2] = system: Ex-vivo porcine skin; assay: Skin moisturization: Corneometer hydration of treated ex-vivo porcine skin
Description: Skin moisturization was assessed in terms of hydration, measured using a Corneometer (Courage+Khazaka, Germany, model CM 825, consistent with the Sorption Desorption Test described in Bioengineering of the Skin:Water and the Stratum Corneum, by G. Borroni et al., Ed by P. Elsner et al., CBC Press, Chapter 18, 1995). Instrument readings typically vary from 5 to 120 units, with small numbers (˜6) typical for nails, higher numbers typical for dry skin (˜10-20), medium numbers typical for hydrated skin (˜40) and large numbers typical for skin immediately after application of water-based humectants (above 100).
Ex-vivo porcine skin (area 1.5 cm×1.5 cm) was treated with 0.1 ml of the compositions identified in Table 1 as well as a 10% glycerol solution and deionized water as the control. Readings were taken before treatments as a baseline and at least 5 measurements were made at the same position at the time intervals shown in the table.
The relative hydration numbers were calculated as 100%*(Ct-C0)/C0, where C0 is the reading before the treatment, and Ct is the reading taken at the time t after treatment.

[3] = Glass transition temperature by differential scanning calorimetry; assay type: physicochemical
Description: Glass transition temperatures were measured using differential scanning calorimetry (DSC Q1000, TA Instruments) at a heating rate of 10 K/min from −80 to +40° C. Glass transition temperatures were determined using TA instrument software (TA Advantage) from the middle of the heat capacity curve. The compositions comprising aminopeptide mixtures consistent with this invention were assessed against glycerol and other compositions with amino acids. Water concentration means the water concentration of the composition at the time the glass transition temperature was obtained. Water was evaporated from contained compositions by storing the same at room temperature at a relative humidity of about 33%.

## OCC(O)CO [Glycerol (10%), glycerol]
[1]; relative humidity 20.8 %
  Water uptake, desorption: 87.3 mg/g
  Water uptake, sorption: 122.22 mg/g
  water uptake difference (desorption-sorption): 34.92 mg/g
[1]; relative humidity 31 %
  Water uptake, desorption: 135.34 mg/g
  Water uptake, sorption: 161.38 mg/g
  water uptake difference (desorption-sorption): -26.04 mg/g
[1]; relative humidity 41 %
  Water uptake, desorption: 192.06 mg/g
  Water uptake, sorption: 209.84 mg/g
  water uptake difference (desorption-sorption): -17.78 mg/g
[1]; relative humidity 51 %
  Water uptake, desorption: 261.90 mg/g
  Water uptake, sorption: 275.13 mg/g
  water uptake difference (desorption-sorption): -13.23 mg/g
[1]; relative humidity 60.2 %
  Water uptake, desorption: 366.67 mg/g
  Water uptake, sorption: 366.67 mg/g
  water uptake difference (desorption-sorption): 0 mg/g
[1]; relative humidity 70.35 %
  Water uptake, desorption: 524.34 mg/g
  Water uptake, sorption: 524.34 mg/g
  water uptake difference (desorption-sorption): 0 mg/g
[2]; 10 minutes after treatment with 0.1 ml
  Relative Hydration: 23%
[2]; 30 minutes after treatment with 0.1 ml
  Relative Hydration: 11%
[2]; 60 minutes after treatment with 0.1 ml
  Relative Hydration: 10%
[2]; after 10, 30, and 60 minutes of application to model skin, in words
  change in hydration with respect to the initial hydration number: lower
[3]; water concentration 0 % in composition at reading
  Glass transition temperature: −83 °C
[3]; water concentration 40 % in composition at reading
  Glass transition temperature: −108 °C
